# BindingDB's records for doi:10.1021/jm00001a002 (National Institutes of Health, 1995)
# Molecular target: Sigma non-opioid intracellular receptor 1 (Cavia porcellus) (UniProt Q60492)
# Assay: In vitro binding affinity towards Sigma receptor type 1 was determined by measuring its ability to displace [3H](+)-pentazocine from guinea pig brain membrane
# Chain of Sigma non-opioid intracellular receptor 1 (Cavia porcellus) (Q60492 whole entry, looked up): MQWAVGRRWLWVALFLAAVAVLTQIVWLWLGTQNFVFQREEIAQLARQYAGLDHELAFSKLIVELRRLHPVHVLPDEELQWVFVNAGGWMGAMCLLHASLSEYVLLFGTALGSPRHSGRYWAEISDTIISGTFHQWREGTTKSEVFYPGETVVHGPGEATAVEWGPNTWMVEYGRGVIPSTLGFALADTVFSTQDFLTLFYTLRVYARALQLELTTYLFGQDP
row,Ki [nM],Compound
1,62.1,CN1CCC=C(c2nsnc2SCCCF)C1
2,21.7,CN1CCC=C(c2nsnc2SCCF)C1
